Results published in patent EP2608671B1, “COMPOUNDS FOR TREATMENT OF CANCER” (Gtx, Inc., priority 2010, dated 2012).
Like-named read-outs stand apart in the source and are kept apart here.

Columns and labels:
PC-3 = experiment: cells; conditions: Homo sapiens
From the text: (§1) The only compounds which belong to the invention are the ones falling under the scope of formula (XI).
Cells were stained with SRB solution.
Cells. […] Cells between the third and fifth passages were used for experiments.
Cell growth inhibition studies. […] Cells were stained with sulphorhodamine B (SRB) solution.

LNCaP = experiment: cells; conditions: Homo sapiens
DU 145 = experiment: cells; conditions: Homo sapiens
PPC-1 = experiment: cells; conditions: Homo sapiens
B16-F1 = experiment: SRB cell growth inhibition (cytotoxicity) assay; format: cell-based, mouse; conditions: Mus musculus, B16-F1; read-out: IC50 ± SEM (nM), B16-F1
From the text: as §1

A375 = experiment: SRB cell growth inhibition (cytotoxicity) assay; format: cell-based, human; conditions: Homo sapiens, A-375, 96 h; read-out: IC50 ± SEM (nM), A375
[1] = PC-3, 96 h, read-out: IC50 ± SEM (nM), PC-3
[2] = 96 h, read-out: IC50 ± SEM (nM), LNCaP
[3] = DU-145, 96 h, read-out: IC50 ± SEM (nM) Du 145
[4] = PPC-1, 96 h, read-out: IC50 ± SEM (nM), PPC-1
[5] = DU-145, 96 h, read-out: IC50 ± SEM (nM), DU 145
[6] = PC-3, read-out: IC50 (nM), PC-3
[7] = DU-145, read-out: IC50 (nM), DU 145
[8] = PPC-1, read-out: IC50 (nM), PPC-1
[9] = PC-3, 96 h, read-out: IC50 (nM), PC-3

Compound: COc1cc(C(=O)c2c[nH]c(-c3ccc(F)cc3)n2)cc(OC)c1OC [12ba, (2-(4-fluorophenyl)-1H-imidazol-4-yl)(3,4,5-trimethoxyphenyl)methanone]
- IC50 (PC-3; [1]): 169 ± 12 nM
- IC50 (LNCaP; [2]): 98 ± 2 nM
- IC50 (DU 145; [3]): 132 ± 24 nM
- IC50 (PPC-1; [4]): 81 ± 1 nM

Compound: COc1cc(C(O)c2csc(-c3ccccc3)n2)cc(OC)c1OC (centres unmarked) [2b, (2-Phenylthiazol-4-yl)(3,4,5-trimethoxyphenyl)methanol]
- IC50 (PC-3; [1]): > 10000 nM
- IC50 (LNCaP; [2]): > 10000 nM
- IC50 (DU 145; [5]): > 10000 nM
- IC50 (B16-F1): > 30000 nM
- IC50 (A375): > 30000 nM
- IC50 (PPC-1; [4]): > 10000 nM

Compound: O=S(=O)(c1ccc(F)cc1)N1CCCc2ccc(-c3ccc4[nH]ccc4c3)cc21 [compound 41, 1-(4-Fluoro-benzenesulfonyl)-7-(1H-indol-5-yl)-1,2,3,4-tetrahydroquinoline]
- IC50 (PC-3; [6]): 18200 nM
- IC50 (LNCaP; read-out: IC50 (nM), LNCaP): 15800 nM
- IC50 (DU 145; [7]): 17000 nM
- IC50 (PPC-1; [8]): > 20000 nM

Compound: O=S(=O)(c1ccc(F)cc1)N1CCc2ccc(Br)cc2C1 [compound 42, 7-Bromo-2-(4-fluoro-benzenesulfonyl)-1,2,3,4-tetrahydro-isoquinoline]
- IC50 (PC-3; [6]): 23800 nM
- IC50 (LNCaP; read-out: IC50 (nM), LNCaP): 43600 nM
- IC50 (DU 145; [7]): 24900 nM
- IC50 (PPC-1; [8]): > 20000 nM

Compound: c1ccc(Nc2nccn2C(c2ccccc2)(c2ccccc2)c2ccccc2)cc1 [d, N-Phenyl-1-trityl-1H-imidazol-2-amine]
- IC50 (PC-3; [1]): > 1000 nM
- IC50 (LNCaP; [2]): > 1000 nM
- IC50 (DU 145; [5]): > 1000 nM
- IC50 (PPC-1; [4]): > 1000 nM

Compound: O=C(c1cccc(F)c1)c1c[nH]c(-c2ccccc2)n1 [12ag, (3-fluorophenyl)(2-phenyl-1H-imidazol-4-yl)methanone]
- IC50 (PC-3; [9]): > 10000 nM

Compound: O=[N+]([O-])c1ccc(-c2nccn2S(=O)(=O)c2ccccc2)cc1 [10x, 2-(4-nitrophenyl)-1-(phenylsulfonyl)-1H-imidazole]
- IC50 (PC-3; [9]): > 10000 nM

Compound: COc1ccc(-c2nc(C(=O)c3cc(OC)c(OC)c(OC)c3)c[nH]2)cc1 [12ca, (2-(4-methoxyphenyl)-1H-imidazol-4-yl)(3,4,5-trimethoxyphenyl)methanone]
- IC50 (PC-3; [1]): 45 ± 1 nM
- IC50 (DU 145; [3]): 48 ± 0.5 nM
- IC50 (PPC-1; [4]): 34 ± 0.3 nM

Compound: COc1cc(C(=O)c2cn(C(c3ccccc3)(c3ccccc3)c3ccccc3)c(Nc3ccccc3)n2)cc(OC)c1OC [e, (2-(Phenylamino)-1-trityl-1H-imidazol-4-yl)(3,4,5 trimethoxyphenyl)methanone]
- IC50 (PC-3; [1]): > 1000 nM
- IC50 (LNCaP; [2]): > 1000 nM
- IC50 (DU 145; [5]): > 1000 nM
- IC50 (PPC-1; [4]): > 1000 nM

Compound: COc1cc(C(=O)c2cn(Cc3ccccc3)c(-c3ccc(C)cc3)n2)cc(OC)c1OC [12daa, (1-Benzyl-2-(p-tolyl)-1H-imidazol-4-yl)(3,4,5-trimethoxyphenyl)methanone]
- IC50 (PC-3; [1]): 466 nM
- IC50 (LNCaP; [2]): 683 nM
- IC50 (DU 145; [3]): 1500 nM
- IC50 (PPC-1; [4]): 778 nM

Compound: O=C(c1ccc(F)cc1)c1c[nH]c(-c2ccc(OCc3ccccc3)cc2)n1 [12jb, (2-(4-(benzyloxy)phenyl)-1H-imidazol-4-yl)(4-fluorophenyl)methanone]
- IC50 (PC-3; [1]): 79 ± 0.4 nM
- IC50 (LNCaP; [2]): 44 ± 7 nM
- IC50 (DU 145; [3]): 60 ± 3 nM
- IC50 (PPC-1; [4]): 43 ± 0.2 nM

Compound: O=S(=O)(c1ccccc1)n1ccnc1-c1ccccc1 [10a, 2-phenyl-1-(phenylsulfonyl)-1H-imidazole]
- IC50 (PC-3; [9]): > 10000 nM

Compound: O=S(=O)(c1ccc(F)cc1)N1CCCc2ccc(Br)cc21 [compound 43, 7-Bromo-1-(4-fluoro-benzenesulfonyl)-1,2,3,4-tetrahydroquinoline]
- IC50 (PC-3; [6]): 14700 nM
- IC50 (LNCaP; read-out: IC50 (nM), LNCaP): 12700 nM
- IC50 (DU 145; [7]): 17200 nM
- IC50 (PPC-1; [8]): > 20000 nM

Compound: COc1cc(NC(=O)c2csc(-c3ccccc3)n2)cc(OC)c1OC [2g, 2-Phenyl-N-(3,4,5-trimethoxyphenyl)thiazole-4-carboxamide]
- IC50 (PC-3; [1]): > 10000 nM
- IC50 (DU 145; [5]): > 10000 nM
- IC50 (B16-F1): > 30000 nM
- IC50 (A375): > 30000 nM
- IC50 (PPC-1; [4]): > 10000 nM

Compound: COc1ccc(C(=O)c2c[nH]c(-c3ccccc3)n2)cc1OC [12ae, (3,4-dimethoxyphenyl)(2-phenyl-1H-imidazol-4-yl)methanone]
- IC50 (PC-3; [9]): > 10000 nM

Compound: CN(C)c1ccc(-c2nc(C(=O)c3ccc(F)cc3)c[nH]2)cc1 [12gb, (2-(4-(dimethylamino)phenyl)-1H-imidazol-4-yl)(4-fluorophenyl)methanone]
- IC50 (PC-3; [1]): 81 ± 3 nM
- IC50 (LNCaP; [2]): 57 ± 6 nM
- IC50 (PPC-1; [4]): 45 ± 0.3 nM
